Data: patent publication US20240398811A1, “PRC2 INHIBITORS FOR USE IN TREATING BLOOD DISORDERS” (ORIC Pharmaceuticals, Inc., priority 2021, published 2024)

Experiments:
[1] = system: bone marrow derived CD34+ cells differentiated into erythroid progenitor cells; assay: Percentage of F cells (fetal hemoglobin containing cells) by flow cytometry in differentiated CD34+ cells; assay type: cell-based, human; details: 7-day treatment; for fold increase in % F cells: vs vehicle
Description: (§1) Cell Culture and differentiation protocol. Human bone marrow derived CD34+ cells from healthy donors were purchased from StemCell (#70002.2). The CD34+ cells were differentiated using the STEMdiff™ Erythroid kit (StemCell #100-0074) according to manufacturer's instructions. The CD34+ cells were differentiated for 14 days, and the differentiation medium consisted of StemSpan™ SFEM II media and 10% of STEMdiff™ Erythroid Supplement E2 (10×). The CD34+ cells were thawed and plated in a 12-well plate (Corning #3512) at a density of 40,000 cells/well in 1 mL of differentiation media. 100 μL of STEMdiff™ Erythroid Supplement E2 (10×) was added to each well on Day 2, 4, 9 and 11 during differentiation. On day 7, cells were passaged and replated at a density of 167,000 cells/well in a 12-well plate. Flow cytometry was performed every 7 days to assess the stages of differentiation using anti-human CD71 and anti-human glycophorin A (CD235a) antibody (StemCell #60106AZ; #60152FI).
(§2) Treatment of differentiated CD34+ cells with compound Example 32 or hydroxyurea (HU). After 14 days of differentiation, cells were plated in a 12-well plate at a density of 150,000 cells/well in 1 mL differentiation media in quadruplets. The next day, cells were treated with vehicle, 7 concentrations of compound Example 32 in concentrations ranging from 15.625 nM to 1 μM ([…] serial dilution) and 20 μM of HU. 100 μL of STEMdiff™ Erythroid Supplement E2 (10×) was added to each well on Day 2 and 4. Cells were treated with vehicle, compound Example 32, or HU for 7 days and were then harvested for RT-qPCR and flow cytometry.
Flow Cytometry. The cell pellets harvested for flow cytometry analysis were collected in a V-shaped 96-well polypropylene plate (ThermoFisher #249944). The cells were washed with PBS and resuspended in 100 μL of PBS. The cells were first stained with eFluor 450 viability dye (diluted 1:250 in cold PBS; Invitrogen #65-0863-14) for 5 minutes on ice in the dark followed by incubation in Fc receptor blocking solution for 10 minutes (BioLegend #422302). […] Cells were washed twice and resuspended in FACS buffer and then analyzed by flow cytometry. Data was acquired using SONY SA3800 cytometer (software version 2.0.4.13263) and analyzed using FlowJo.
Bone marrow derived CD34+ cells from two healthy human donors (donor A and donor B) were differentiated into erythroid progenitor cells (erythroblasts) expressing Glycophorin A and CD71. Fourteen-day differentiated cells were then treated with vehicle (veh), different concentrations of compound Example 32, or 20 μM HU for 7 days and cells were analyzed for increase in fetal hemoglobin levels at both mRNA and protein levels. […]

[2] = system: HBG2 mRNA; assay: HBG2 mRNA levels by RT-qPCR in differentiated CD34+ cells; assay type: cell-based, human; details: 7-day treatment
Description: as §1, §2
(§3) RNA extraction and RT-qPCR analysis. The cell pellets harvested for mRNA analysis were first washed once with PBS and then resuspended in 600 μL of RLT lysis buffer (from the Qiagen kit) supplemented with 1% of beta-mercaptoethanol (Sigma-Aldrich #M6250). […] The extracted RNA was then quantified using a NanoDrop™ 8000 Spectrophotometer (ThermoFisher #ND8000-GL, software version 2.3.2). […]

[3] = system: HBG1 mRNA; assay: HBG1 mRNA levels by RT-qPCR in differentiated CD34+ cells; assay type: cell-based, human; details: 7-day treatment
Description: as §1, §2, §3

[4] = molecular target: purified human, His-tagged PRC2 complex (Homo sapiens (Human), UniProt O75530); assay: Hot Spot HMT assay, inhibition of PRC2 enzymatic activity; assay type: biochemical; details: 10 nM PRC2 complex, 1 μM 3H-SAM, core histone H3, 10-point dose-response
In short: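 Methyl transfer from 1 μM tritiated SAM onto 0.05 mg/ml core histone H3, catalysed by 10 nM His/Flag-tagged human PRC2 holoenzyme, was run 1 hr at 30° C after a 20 min compound preincubation. Serial dilutions began at 1.0 μM; product captured on filters and counted.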

[5] = Donor A, normalized to RPL27, relative to vehicle
[6] = Donor B, normalized to RPL27, relative to vehicle

Chain of purified human, His-tagged PRC2 complex (O75530 whole entry): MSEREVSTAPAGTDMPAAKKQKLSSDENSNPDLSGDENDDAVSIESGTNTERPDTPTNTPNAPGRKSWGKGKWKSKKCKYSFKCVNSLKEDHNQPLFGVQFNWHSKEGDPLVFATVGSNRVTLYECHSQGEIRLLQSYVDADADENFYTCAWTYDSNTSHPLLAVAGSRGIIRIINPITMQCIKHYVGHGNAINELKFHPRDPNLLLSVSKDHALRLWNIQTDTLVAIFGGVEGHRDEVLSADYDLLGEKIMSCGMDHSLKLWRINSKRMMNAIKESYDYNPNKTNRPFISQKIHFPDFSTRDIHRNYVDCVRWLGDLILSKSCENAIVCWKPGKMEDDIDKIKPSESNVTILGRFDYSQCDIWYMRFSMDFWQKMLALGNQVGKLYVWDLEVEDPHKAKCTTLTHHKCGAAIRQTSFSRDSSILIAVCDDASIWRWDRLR
Chain of purified human, His-tagged PRC2 complex (Q15910 whole entry partner): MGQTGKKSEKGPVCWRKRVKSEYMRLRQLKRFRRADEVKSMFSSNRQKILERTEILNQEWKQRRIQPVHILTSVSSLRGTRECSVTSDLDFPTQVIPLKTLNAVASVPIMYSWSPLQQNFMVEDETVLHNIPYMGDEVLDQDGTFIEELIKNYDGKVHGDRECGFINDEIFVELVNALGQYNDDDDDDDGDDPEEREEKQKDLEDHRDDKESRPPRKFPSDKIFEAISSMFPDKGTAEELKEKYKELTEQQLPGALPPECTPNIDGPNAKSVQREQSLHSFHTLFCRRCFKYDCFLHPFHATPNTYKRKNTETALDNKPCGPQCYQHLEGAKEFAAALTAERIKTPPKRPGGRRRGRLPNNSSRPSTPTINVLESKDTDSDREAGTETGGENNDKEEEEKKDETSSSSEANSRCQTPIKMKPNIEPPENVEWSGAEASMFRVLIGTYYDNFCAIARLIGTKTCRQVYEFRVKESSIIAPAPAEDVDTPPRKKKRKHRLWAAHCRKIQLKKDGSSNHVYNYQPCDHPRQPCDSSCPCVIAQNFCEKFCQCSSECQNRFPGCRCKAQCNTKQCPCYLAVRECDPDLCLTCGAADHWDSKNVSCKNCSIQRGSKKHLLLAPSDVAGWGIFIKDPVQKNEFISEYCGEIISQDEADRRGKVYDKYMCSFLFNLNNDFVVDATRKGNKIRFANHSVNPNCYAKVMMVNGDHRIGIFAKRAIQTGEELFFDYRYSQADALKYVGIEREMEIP
Chain of purified human, His-tagged PRC2 complex (Q15022 whole entry partner): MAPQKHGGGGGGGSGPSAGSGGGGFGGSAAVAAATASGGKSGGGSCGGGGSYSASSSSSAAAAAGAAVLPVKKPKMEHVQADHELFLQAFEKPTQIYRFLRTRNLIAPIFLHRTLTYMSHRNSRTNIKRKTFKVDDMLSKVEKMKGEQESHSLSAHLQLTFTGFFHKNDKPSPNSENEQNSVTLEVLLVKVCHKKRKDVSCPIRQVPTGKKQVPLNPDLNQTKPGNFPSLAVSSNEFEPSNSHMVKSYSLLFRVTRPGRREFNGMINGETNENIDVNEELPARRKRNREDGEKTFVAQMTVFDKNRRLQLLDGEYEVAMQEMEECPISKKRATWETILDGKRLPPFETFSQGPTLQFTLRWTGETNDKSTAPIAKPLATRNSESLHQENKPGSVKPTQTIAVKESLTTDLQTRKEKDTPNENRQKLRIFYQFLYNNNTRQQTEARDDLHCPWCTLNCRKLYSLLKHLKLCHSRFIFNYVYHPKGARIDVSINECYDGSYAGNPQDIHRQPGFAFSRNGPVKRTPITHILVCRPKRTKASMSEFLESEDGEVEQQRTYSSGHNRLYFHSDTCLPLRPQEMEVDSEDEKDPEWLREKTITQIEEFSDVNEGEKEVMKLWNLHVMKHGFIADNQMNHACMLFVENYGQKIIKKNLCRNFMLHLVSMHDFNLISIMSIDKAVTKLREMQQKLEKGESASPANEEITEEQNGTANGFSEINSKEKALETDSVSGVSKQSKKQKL
Chain of purified human, His-tagged PRC2 complex (Q6ZN18 whole entry partner): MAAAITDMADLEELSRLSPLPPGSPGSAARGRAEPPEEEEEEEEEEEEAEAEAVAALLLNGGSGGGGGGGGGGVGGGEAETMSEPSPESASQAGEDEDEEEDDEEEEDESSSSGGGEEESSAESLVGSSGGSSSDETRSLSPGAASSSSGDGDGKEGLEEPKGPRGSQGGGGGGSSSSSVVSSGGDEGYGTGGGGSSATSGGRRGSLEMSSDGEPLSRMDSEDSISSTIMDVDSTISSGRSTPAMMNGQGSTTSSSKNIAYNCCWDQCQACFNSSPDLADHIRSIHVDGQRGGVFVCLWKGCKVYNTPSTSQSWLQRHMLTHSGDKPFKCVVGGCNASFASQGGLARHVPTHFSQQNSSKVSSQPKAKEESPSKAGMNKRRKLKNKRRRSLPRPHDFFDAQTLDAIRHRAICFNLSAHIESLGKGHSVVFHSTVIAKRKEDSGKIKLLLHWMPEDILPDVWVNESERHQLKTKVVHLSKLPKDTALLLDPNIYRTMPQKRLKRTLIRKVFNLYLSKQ
Chain of purified human, His-tagged PRC2 complex (Q09028 whole entry partner): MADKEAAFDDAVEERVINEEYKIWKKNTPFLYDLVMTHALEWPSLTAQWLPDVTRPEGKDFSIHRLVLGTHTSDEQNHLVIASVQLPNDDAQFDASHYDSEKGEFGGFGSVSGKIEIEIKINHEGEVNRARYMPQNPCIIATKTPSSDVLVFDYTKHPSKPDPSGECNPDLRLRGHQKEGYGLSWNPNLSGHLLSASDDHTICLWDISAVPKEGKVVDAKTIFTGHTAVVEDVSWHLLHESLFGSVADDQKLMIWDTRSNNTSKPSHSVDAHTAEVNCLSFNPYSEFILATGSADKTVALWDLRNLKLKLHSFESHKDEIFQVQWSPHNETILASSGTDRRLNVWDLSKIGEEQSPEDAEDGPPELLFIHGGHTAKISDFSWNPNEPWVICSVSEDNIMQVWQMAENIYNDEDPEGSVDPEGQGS

| Compound | % F cells (live cells with fetal hemoglobin) ([1]; donors A and B, 14-day differentiated cells) | fold increase in % F cells ([1]; donors A and B, 14-day differentiated cells, 15.625 nM to 1 μM) | fold increase in HBG2 mRNA levels [2, 5] [fold] | fold increase in HBG2 mRNA levels [2, 6] [fold] | fold increase in HBG1 mRNA levels [3, 5] [fold] | fold increase in HBG1 mRNA levels [3, 6] [fold] | IC50 [4] [nM] | fold increase in % F cells ([1]; Donor A, 20 μM) [fold] | fold increase in % F cells ([1]; Donor B, 20 μM) [fold] | fold increase in HBG2 mRNA levels ([2]; Donor A, 20 μM, relative to vehicle) [fold] | fold increase in HBG1 mRNA levels ([3]; Donor B, 20 μM, relative to vehicle) [fold] |
| --- | --- | --- | --- | --- | --- | --- | --- | --- | --- | --- | --- |
| Cc1cc(CN(C)C)ccc1-c1cnc(NCc2c(F)ccc3c2CCO3)n2cc(C#N)nc12 [Example 32] | 30-40% | 2.6-2.7 fold | 9 | 4 | 4 | 4 | 100 to 500 | – | – | – | – |
| NC(=O)NO [HU, hydroxyurea, reference compound] | – | – | – | – | – | – | – | 1.9 | 1.3 | 2.7 | 1.7 |
